In article PMC7822874, “Chemoprotective antimalarials identified through quantitative high-throughput screening of Plasmodium blood and liver stage parasites” (Scientific Reports, 2021):
Read-outs that look alike come from different tables or passages of the source.

Experiments:
[1] = system: P. berghei-ANKA-GFP-LucCON liver stage parasites in HepG2-A16-CD81EGFP cells; assay: P. berghei liver stage Pb-Luc assay, Method 1 (UCSD, 1536-well); type: cell-based, Plasmodium berghei; conditions: Plasmodium berghei, 48 h, average of 2 wells on a 1536 well plate; for activity at 1 µM: 1 uM (compounds provided at 10 mM); for activity at 3 µM: 3 uM (compounds provided at 10 mM)
[2] = in vitro; conditions: human
[3] = system: Plasmodium falciparum Dd2 asexual blood stage parasites; assay: microbe, parasite or virus in culture; parameters: species or system Plasmodium falciparum Dd2 in human erythrocytes; single determination (one 11-point concentration-response curve); conditions: Plasmodium falciparum, DD2, Erythrocyte, 72 h; read-out: AC50
[4] = column 11, read-out: Pb-Luc (P. berghei liver stage), % of control, lower concentration, first repeat
[5] = column 12, read-out: Pb-Luc (P. berghei liver stage), % of control, lower concentration, second repeat
[6] = column 8, read-out: Pb-Luc (P. berghei liver stage), % of control, higher concentration, first repeat
[7] = column 9, read-out: Pb-Luc (P. berghei liver stage), % of control, higher concentration, second repeat
[8] = HepG2-A16-CD81EGFP cells, uninfected

For `Cc1cc(NC2C3CC4CC(C3)CC2C4)n2nnnc2n1` (stereo not drawn) [MLS000033680-01], the activity at 1 µM [1, 4] was 124%, the activity at 1 µM [1, 5] was 128% and the activity at 3 µM [1, 6] was 108%. For the same molecule, the activity at 3 µM [1, 7] was 131%, the viability at 48 h, 1 µM [2, 8] was 99% and the viability at 48 h, 3 µM [2, 8] was 108%.
In the case of `COc1ccccc1CNCC(O)(c1ccc(Cl)cc1)c1ccc(Cl)cc1` [MLS000325719-01], the activity at 1 µM [1, 4] is reported as 101%, the activity at 1 µM [1, 5] is reported as 103% and the activity at 3 µM [1, 6] is reported as 108%. It also gave an activity at 3 µM [1, 7] of 98%, an AC50 [3] of 1.5 µM and a viability at 48 h, 1 µM [2, 8] of 95%. It also gave a viability at 48 h, 3 µM [2, 8] of 101%.
`NC1=NC[C@@H](Cc2ccc(O)cc2)N1CCCCC1CCCCC1` [MLS000888822-01] gave an activity at 1 µM [1, 4] of 90%, an activity at 1 µM [1, 5] of 82% and an activity at 3 µM [1, 6] of 35%. The activity at 3 µM [1, 7] was 46%, the AC50 [3] was 4.73 µM and the viability at 48 h, 1 µM [2, 8] was 116%. For the same molecule, the viability at 48 h, 3 µM [2, 8] was 94%.
For `CC(C)(C)OC(=O)N1CCC(CC2CC(c3ccccc3)=NO2)(C(=O)NCc2ccccc2)CC1` (stereo not drawn) [MLS002174287-01], the activity at 1 µM [1, 4] was 140%, the activity at 1 µM [1, 5] was 108% and the activity at 3 µM [1, 6] was 65%. It also gave an activity at 3 µM [1, 7] of 115%, an AC50 [3] of 2.66 µM and a viability at 48 h, 1 µM [2, 8] of 111%. The viability at 48 h, 3 µM [2, 8] was 95%.
`Cc1ccc(C)c(NC(=O)CN(C)C(=O)c2ccc(-c3cccc(C(F)(F)F)c3)o2)c1` [MLS001161354-01] gave an activity at 1 µM [1, 4] of 171%, an activity at 1 µM [1, 5] of 168% and an activity at 3 µM [1, 6] of 154%. For the same molecule, the activity at 3 µM [1, 7] was 126%, the AC50 [3] was 2.11 µM and the viability at 48 h, 1 µM [2, 8] was 98%. The viability at 48 h, 3 µM [2, 8] was 102%.
In the case of `CCOC(=O)c1c(C)oc2c1C(=O)c1ccccc1C2=O` [MLS000684830-01], the activity at 1 µM [1, 4] is reported as 95%, the activity at 1 µM [1, 5] is reported as 85% and the activity at 3 µM [1, 6] is reported as 72%. For the same molecule, the activity at 3 µM [1, 7] was 93%, the AC50 [3] was 0.422 µM and the viability at 48 h, 1 µM [2, 8] was 105%. The viability at 48 h, 3 µM [2, 8] was 99%.
Work on `Fc1ccc(-c2csc3ncnc(Cl)c23)cc1` [MLS000590541-01] yielded an activity at 1 µM [1, 4] of 115%, an activity at 1 µM [1, 5] of 105% and an activity at 3 µM [1, 6] of 120%. For the same molecule, the activity at 3 µM [1, 7] was 132%, the AC50 [3] was 3.35 µM and the viability at 48 h, 1 µM [2, 8] was 111%. It also gave a viability at 48 h, 3 µM [2, 8] of 101%.
For `COc1ccc(Cc2nnc(NC(=O)c3ccc(OC)cc3OC)s2)cc1` [MLS001211969-01], the activity at 1 µM [1, 4] was 125%, the activity at 1 µM [1, 5] was 130% and the activity at 3 µM [1, 6] was 128%. The activity at 3 µM [1, 7] was 128%, the viability at 48 h, 1 µM [2, 8] was 100% and the viability at 48 h, 3 µM [2, 8] was 104%.
With `c1cncc(-c2nnc(-c3cccnc3)nn2)c1` [MLS000075752-01] the activity at 1 µM [1, 4] was 110%, the activity at 1 µM [1, 5] was 109% and the activity at 3 µM [1, 6] was 109%. For the same molecule, the activity at 3 µM [1, 7] was 117%, the viability at 48 h, 1 µM [2, 8] was 98% and the viability at 48 h, 3 µM [2, 8] was 100%.
Molecule `COc1ccc(NC2=NC3(CCCCC3)N=C(N)N2)cc1` [MLS000090248-01] has an activity at 1 µM [1, 4] of 133%, an activity at 1 µM [1, 5] of 110% and an activity at 3 µM [1, 6] of 100%. For the same molecule, the activity at 3 µM [1, 7] was 80%, the viability at 48 h, 1 µM [2, 8] was 113% and the viability at 48 h, 3 µM [2, 8] was 97%.
For `COc1ccccc1NC(=O)CN1CCN(C(=O)c2ccco2)CC1` [MLS000122729-01], the activity at 1 µM [1, 4] was 130%, the activity at 1 µM [1, 5] was 101% and the activity at 3 µM [1, 6] was 50%. For the same molecule, the activity at 3 µM [1, 7] was 80%, the viability at 48 h, 1 µM [2, 8] was 101% and the viability at 48 h, 3 µM [2, 8] was 101%.
Molecule `COc1cccc(Cn2c(Oc3ccccc3)nc3c2c(=O)n(C)c(=O)n3C)c1` [MLS000038011-01] has an AC50 [3] of 4.73 µM, a viability at 48 h, 1 µM [2, 8] of 107% and a viability at 48 h, 3 µM [2, 8] of 98%.
`OC(CNCc1cccc(Cl)c1)c1ccccc1` (stereo not drawn) [MLS000674343-01] showed an AC50 [3] of 4.73 µM and a viability at 66 h [2, 8] of 106%.
`CCCCC(O)(c1ccc(CC)cc1)C(CN1CCOCC1)c1ccccc1` (stereo not drawn) [MLS001198887-01] gave an AC50 [3] of 4.73 µM, a viability at 48 h, 1 µM [2, 8] of 88% and a viability at 48 h, 3 µM [2, 8] of 85%.
Work on `Cc1cccc(NC(=O)Cn2c(C)c(C#N)c3ccccc32)c1C` [MLS000030212-01] yielded an AC50 [3] of 5.96 µM, a viability at 48 h [2, 8] of 99.9% and a viability at 48 h, 1 µM [2, 8] of 99.9%.
`CC(OC(=O)CCc1cc(C(C)(C)C)c(O)c(C(C)(C)C)c1)C(=O)NC1CC1` (stereo not drawn) [MLS001159754-01] gave an AC50 [3] of 4.73 µM, a viability at 48 h, 1 µM [2, 8] of 104% and a viability at 48 h, 3 µM [2, 8] of 101%.
`CCCCCCSc1ccc([C@H]2N[C@@](Cc3ccccc3)(C(=O)OC)[C@H]3C(=O)N(C)C(=O)[C@@H]23)cc1` [MLS001361994-01] showed an AC50 [3] of 4.73 µM, a viability at 48 h, 1 µM [2, 8] of 112% and a viability at 48 h, 3 µM [2, 8] of 100%.
With `COc1cc(O)c(C(CCN2CCN(c3ccccc3)CC2)c2ccc(N(C)C)cc2)c(OC)c1` (stereo not drawn) [MLS000879536-01] the AC50 [3] was 0.596 µM, the viability at 48 h, 1 µM [2, 8] was 102% and the viability at 48 h, 3 µM [2, 8] was 99%.
`CC(C)CCNC(=O)c1cc(C(=O)c2cc(Br)ccc2O)cn(CCC(C)C)c1=O` [MLS000775608-01] showed an AC50 [3] of 0.944 µM and a viability at 66 h [2] of 105%.
Work on `O=C1c2ccccc2C2=Nc3ccccc3SC(c3ccccc3F)C12` (stereo not drawn) [MLS000562246-01] yielded an AC50 [3] of 4.73 µM, a viability at 48 h, 1 µM [2, 8] of 99% and a viability at 48 h, 3 µM [2, 8] of 95%.
Molecule `CN(C)c1cc[n+](Cc2ccccc2)cc1` [MLS000070144-01] has an AC50 [3] of 10.6 µM and a viability at 66 h [2, 8] of 96.5%.
`CCSc1nc2sc3c(c2c(=O)n1-c1ccccc1)CCN(C)C3` [MLS001212076-01] showed an AC50 [3] of 6.68 µM, a viability at 48 h, 1 µM [2, 8] of 104% and a viability at 48 h, 3 µM [2, 8] of 103%.
